Source: PubChem BioAssay (NCI)
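Tested at 5 concentrations; 48 h exposure; 96-well plates; endpoints linearly interpolated, else capped at highest concentration. TGI denotes the concentration required for complete inhibition of growth.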

Experiments:
Assay in all cases: inhibition of tumour cell growth, NCI panel, 48 h
XF 498 CNS = test system: XF 498 CNS
HOP-92 NSCLC = test system: HOP-92 NSCLC
M19-MEL melanoma = test system: M19-MEL melanoma
SF-295 CNS = test system: SF-295 CNS
NCI-H460 lung = test system: NCI-H460 lung
DMS 273 small cell lung = test system: DMS 273 small cell lung
SK-MEL-2 melanoma = test system: SK-MEL-2 melanoma
DU-145 prostate = test system: DU-145 prostate
SK-OV-3 ovarian = test system: SK-OV-3 ovarian
KM20L2 colon = test system: KM20L2 colon
LOX IMVI melanoma = test system: LOX IMVI melanoma
MCF7 breast = test system: MCF7 breast
NCI/ADR-RES ovarian = test system: NCI/ADR-RES ovarian
COLO 205 colon = test system: COLO 205 colon
MDA-MB-231 breast = test system: MDA-MB-231 breast
UO-31 renal = test system: UO-31 renal
SNB-19 CNS = test system: SNB-19 CNS
UACC-257 melanoma = test system: UACC-257 melanoma
SF-539 CNS = test system: SF-539 CNS
NCI-H23 lung = test system: NCI-H23 lung
K-562 leukemia = test system: K-562 leukemia
RXF 393 renal = test system: RXF 393 renal
A549 NSCLC = test system: A549 NSCLC
HCT-15 colon = test system: HCT-15 colon
HCT-116 colon = test system: HCT-116 colon
T-47D breast = test system: T-47D breast
KM12 colon = test system: KM12 colon
BT-549 breast = test system: BT-549 breast
EKVX NSCLC = test system: EKVX NSCLC
UACC-62 melanoma = test system: UACC-62 melanoma
HL-60(TB) leukemia = test system: HL-60(TB) leukemia
ACHN renal = test system: ACHN renal
RPMI-8226 leukemia = test system: RPMI-8226 leukemia
HCC-2998 colon = test system: HCC-2998 colon
OVCAR-8 ovarian = test system: OVCAR-8 ovarian
SR leukemia = test system: SR leukemia
MALME-3M melanoma = test system: MALME-3M melanoma
DLD-1 colon = test system: DLD-1 colon
M14 melanoma = test system: M14 melanoma
OVCAR-5 ovarian = test system: OVCAR-5 ovarian
NCI-H226 lung = test system: NCI-H226 lung
SF-268 CNS = test system: SF-268 CNS
A498 renal = test system: A498 renal
SK-MEL-5 melanoma = test system: SK-MEL-5 melanoma
NCI-H522 lung = test system: NCI-H522 lung
U251 CNS = test system: U251 CNS
CCRF-CEM leukemia = test system: CCRF-CEM leukemia
CAKI-1 renal = test system: CAKI-1 renal
HOP-62 NSCLC = test system: HOP-62 NSCLC
SN12C renal = test system: SN12C renal
LXFL 529 NSCLC = test system: LXFL 529 NSCLC
OVCAR-3 ovarian = test system: OVCAR-3 ovarian
SK-MEL-28 melanoma = test system: SK-MEL-28 melanoma
HT29 colon = test system: HT29 colon
PC-3 prostate = test system: PC-3 prostate
SNB-78 CNS = test system: SNB-78 CNS
SW-620 colon = test system: SW-620 colon
MOLT-4 leukemia = test system: MOLT-4 leukemia
MDA-MB-435 = test system: MDA-MB-435
MDA-N = test system: MDA-N
786-0 renal = test system: 786-0 renal
OVCAR-4 ovarian = test system: OVCAR-4 ovarian
DMS 114 small cell lung = test system: DMS 114 small cell lung
IGROV1 ovarian = test system: IGROV1 ovarian
SNB-75 CNS = test system: SNB-75 CNS
TK-10 renal = test system: TK-10 renal

COc1ccc2nc(C)cc(NCCCCCCCCCNc3cc(C)nc4ccc(OC)cc34)c2c1
TGI (XF 498 CNS): 3.69 µM | TGI (HOP-92 NSCLC): 5.21 µM | TGI (M19-MEL melanoma): 31.9 µM | TGI (SF-295 CNS): 2.33 µM | TGI (NCI-H460 lung): 1.77 µM | TGI (DMS 273 small cell lung): 13.4 µM | TGI (SK-MEL-2 melanoma): 10.8 µM | TGI (DU-145 prostate): 19.5 µM | TGI (SK-OV-3 ovarian): 25.7 µM | TGI (KM20L2 colon): 6.36 µM | TGI (LOX IMVI melanoma): 1.99 µM | TGI (MCF7 breast): 2.47 µM | TGI (NCI/ADR-RES ovarian): 34.8 µM | TGI (COLO 205 colon): 7.47 µM | TGI (MDA-MB-231 breast): 2.54 µM | TGI (UO-31 renal): 28.3 µM | TGI (SNB-19 CNS): 10.2 µM | TGI (UACC-257 melanoma): 21.2 µM | TGI (SF-539 CNS): 2.4 µM | TGI (NCI-H23 lung): 6.89 µM | TGI (K-562 leukemia): 2.93 µM | TGI (RXF 393 renal): 5.96 µM | TGI (A549 NSCLC): 8.3 µM | TGI (HCT-15 colon): 5.32 µM | TGI (HCT-116 colon): 1.46 µM | TGI (T-47D breast): 3.46 µM | TGI (KM12 colon): 2.74 µM | TGI (BT-549 breast): 21.1 µM | TGI (EKVX NSCLC): 7.36 µM | TGI (UACC-62 melanoma): 7.34 µM | TGI (HL-60(TB) leukemia): 5.25 µM | TGI (ACHN renal): 21.2 µM | TGI (RPMI-8226 leukemia): > 24.7 µM | TGI (HCC-2998 colon): 2.73 µM | TGI (OVCAR-8 ovarian): 1.42 µM | TGI (SR leukemia): 29.3 µM | TGI (MALME-3M melanoma): 17.7 µM | TGI (DLD-1 colon): 6.61 µM | TGI (M14 melanoma): 5.9 µM | TGI (OVCAR-5 ovarian): 15.2 µM | TGI (NCI-H226 lung): 27.6 µM | TGI (SF-268 CNS): 11.3 µM | TGI (A498 renal): 43.4 µM | TGI (SK-MEL-5 melanoma): 3.11 µM | TGI (NCI-H522 lung): 2.13 µM | TGI (U251 CNS): 5.77 µM | TGI (CCRF-CEM leukemia): 11.2 µM | TGI (CAKI-1 renal): 18.3 µM | TGI (HOP-62 NSCLC): 10.6 µM | TGI (SN12C renal): 11.4 µM | TGI (LXFL 529 NSCLC): 2.4 µM | TGI (OVCAR-3 ovarian): 2.76 µM | TGI (SK-MEL-28 melanoma): 29.9 µM | TGI (HT29 colon): 2.05 µM | TGI (PC-3 prostate): 5.01 µM | TGI (SNB-78 CNS): 26.4 µM | TGI (SW-620 colon): 2.32 µM | TGI (MOLT-4 leukemia): > 34.7 µM | TGI (MDA-MB-435): 2.95 µM | TGI (MDA-N): 2.83 µM | TGI (786-0 renal): 2.31 µM | TGI (OVCAR-4 ovarian): 9.32 µM | TGI (DMS 114 small cell lung): 2.51 µM | TGI (IGROV1 ovarian): 9.1 µM | TGI (SNB-75 CNS): 12.5 µM | TGI (TK-10 renal): 9.77 µM

CCOC(=O)C1N(S(=O)(=O)c2ccc(C)cc2)CCC12c1ccccc1NC2c1ccc(OC)c(OC)c1 (stereo unspecified)
TGI (XF 498 CNS): > 100 µM | TGI (HOP-92 NSCLC): 24.4 µM | TGI (M19-MEL melanoma): > 100 µM | TGI (SF-295 CNS): > 100 µM | TGI (NCI-H460 lung): > 100 µM | TGI (DMS 273 small cell lung): > 100 µM | TGI (SK-OV-3 ovarian): > 100 µM | TGI (KM20L2 colon): > 100 µM | TGI (LOX IMVI melanoma): > 100 µM | TGI (COLO 205 colon): > 100 µM | TGI (UO-31 renal): > 100 µM | TGI (SNB-19 CNS): > 100 µM | TGI (UACC-257 melanoma): > 100 µM | TGI (SF-539 CNS): > 100 µM | TGI (NCI-H23 lung): > 100 µM | TGI (K-562 leukemia): > 100 µM | TGI (RXF 393 renal): > 100 µM | TGI (A549 NSCLC): > 100 µM | TGI (HCT-15 colon): > 100 µM | TGI (HCT-116 colon): > 100 µM | TGI (KM12 colon): > 100 µM | TGI (EKVX NSCLC): > 100 µM | TGI (UACC-62 melanoma): > 100 µM | TGI (HL-60(TB) leukemia): > 100 µM | TGI (ACHN renal): > 100 µM | TGI (RPMI-8226 leukemia): > 100 µM | TGI (HCC-2998 colon): > 100 µM | TGI (OVCAR-8 ovarian): > 100 µM | TGI (SR leukemia): > 100 µM | TGI (MALME-3M melanoma): > 100 µM | TGI (DLD-1 colon): > 100 µM | TGI (M14 melanoma): > 100 µM | TGI (OVCAR-5 ovarian): > 100 µM | TGI (NCI-H226 lung): > 100 µM | TGI (SF-268 CNS): > 100 µM | TGI (A498 renal): > 100 µM | TGI (SK-MEL-5 melanoma): > 100 µM | TGI (NCI-H522 lung): > 100 µM | TGI (U251 CNS): > 100 µM | TGI (CCRF-CEM leukemia): > 100 µM | TGI (CAKI-1 renal): > 100 µM | TGI (HOP-62 NSCLC): > 100 µM | TGI (SN12C renal): > 100 µM | TGI (LXFL 529 NSCLC): > 100 µM | TGI (OVCAR-3 ovarian): > 100 µM | TGI (SK-MEL-28 melanoma): > 100 µM | TGI (HT29 colon): > 100 µM | TGI (SNB-78 CNS): > 100 µM | TGI (SW-620 colon): > 100 µM | TGI (786-0 renal): > 100 µM | TGI (OVCAR-4 ovarian): > 100 µM | TGI (DMS 114 small cell lung): > 100 µM | TGI (IGROV1 ovarian): 34 µM | TGI (SNB-75 CNS): > 100 µM | TGI (TK-10 renal): > 100 µM
